Source: ChEMBL document CHEMBL1140770, “Chemo-, regio-, and stereoselectivity of F-ring opening reactions in the cephalostatin series” (2008)

Key:
Format in all cases: functional
Conditions in all cases: for CC50: read-out: LC50 (the source's name)
HepG2 = assay: Cytostatic activity against human HepG2 cells by SRB assay
MCF7 = assay: Cytostatic activity against human MCF7 cells by SRB assay
[1] = Cytostatic activity against human HM02 cells by SRB assay

Structure (SMILES) | GI50 (HepG2) [µM] | TGI (HepG2) [µM] | CC50 (HepG2) [µM] | GI50 (MCF7) [µM] | TGI (MCF7) [µM] | CC50 (MCF7) [µM] | GI50 [1] [µM] | TGI [1] [µM] | CC50 [1] [µM]
C[C@H]1CC[C@@]2(OC1)O[C@H]1C=C3[C@@H]4CC[C@H]5Cc6nc7c(nc6C[C@]5(C)[C@H]4C[C@@H](O)[C@]3(C)[C@H]1[C@@H]2C)C[C@@H]1CC[C@H]2C3=C[C@@H]4O[C@]5(CC[C@H](C)CO5)[C@@H](C)[C@@H]4[C@@]3(C)[C@H](O)C[C@@H]2[C@@]1(C)C7 | 0.65 | 5 | > 10 | 5.2 | > 10 | > 10 | 2.6 | 7 | > 10
C[C@H]1CC[C@@]2(OC1)O[C@H]1C=C3[C@@H]4CC[C@H]5Cc6nc7c(nc6C[C@]5(C)[C@H]4CC(=O)[C@]3(C)[C@H]1[C@@H]2C)C[C@@H]1CC[C@H]2C3=C[C@@H]4O[C@]5(CC[C@H](C)CO5)[C@@H](C)[C@@H]4[C@@]3(C)[C@H](O)C[C@@H]2[C@@]1(C)C7 | > 10 | > 10 | > 10 | > 10 | > 10 | > 10 | 3 | > 10 | > 10
C[C@H]1CC[C@@]2(OC1)O[C@H]1C=C3[C@@H]4CC[C@H]5Cc6nc7c(nc6C[C@]5(C)[C@H]4C[C@@H](O)[C@]3(C)[C@H]1[C@@H]2C)C[C@@H]1CC[C@H]2C3=C[C@@H]4O[C@]5(CC[C@H](C)CO5)[C@@H](C)[C@@H]4[C@@]3(C)C3(C[C@@H]2[C@@]1(C)C7)OCCO3 | 0.07 | 1.7 | > 10 | 0.1 | > 10 | > 10 | 2.8 | > 10 | > 10
C[C@H](CO)CC[C@H]1O[C@H]2C=C3[C@@H]4CC[C@H]5Cc6nc7c(nc6C[C@]5(C)[C@H]4C[C@@H](O)[C@]3(C)[C@H]2[C@@H]1C)C[C@@H]1CC[C@H]2C3=C[C@@H]4O[C@H](CC[C@H](C)CO)[C@@H](C)[C@@H]4[C@@]3(C)C3(C[C@@H]2[C@@]1(C)C7)OCCO3 | 1 | > 10 | > 10 | 8.2 | > 10 | > 10 | 0.63 | 1 | > 10
C[C@H]1CC[C@@]2(OC1)O[C@H]1C=C3[C@@H]4CC[C@H]5Cc6nc7c(nc6C[C@]5(C)[C@H]4CC(=O)[C@]3(C)[C@H]1[C@@H]2C)C[C@@H]1CC[C@H]2C3=C[C@@H]4O[C@]5(CC[C@H](C)CO5)[C@@H](C)[C@@H]4[C@@]3(C)C(=O)C[C@@H]2[C@@]1(C)C7 | 4.6 | > 10 | > 10 | > 10 | > 10 | > 10 | 5.5 | 7 | > 10
C=C1C[C@H]2[C@@H](CC[C@H]3Cc4nc5c(nc4C[C@@]32C)C[C@@H]2CC[C@H]3C4=C[C@@H]6O[C@]7(CC[C@H](C)CO7)[C@@H](C)[C@@H]6[C@@]4(C)C(=O)C[C@@H]3[C@@]2(C)C5)C2=C[C@@H]3O[C@]4(CC[C@H](C)CO4)[C@@H](C)[C@@H]3[C@@]12C | > 10 | > 10 | > 10 | > 10 | > 10 | > 10 | > 10 | > 10 | > 10
C[C@H]1CC[C@@]2(OC1)O[C@H]1C=C3[C@@H]4CC[C@H]5Cc6nc7c(nc6C[C@]5(C)[C@H]4C[C@@H](O)[C@]3(C)[C@H]1[C@@H]2C)C[C@@H]1CC[C@H]2C3=C[C@@H]4O[C@]5(CC[C@H](C)CO5)[C@@H](C)[C@@H]4[C@@]3(C)C(CO)C[C@@H]2[C@@]1(C)C7 (stereo partly specified) | 6.9 | 10 | > 10 | 0.1 | > 10 | > 10 | 2.3 | > 10 | > 10
C=C1C[C@H]2[C@@H](CC[C@H]3Cc4nc5c(nc4C[C@@]32C)C[C@@H]2CC[C@H]3C4=C[C@@H]6O[C@H](CC[C@H](C)CO)[C@@H](C)[C@@H]6[C@@]4(C)[C@H](O)C[C@@H]3[C@@]2(C)C5)C2=C[C@@H]3O[C@H](CC[C@H](C)CO)[C@@H](C)[C@@H]3[C@@]12C | 1 | > 10 | > 10 | 5 | > 10 | > 10 | 1.7 | 5.8 | 9.5
C[C@H](CO)CC[C@H]1O[C@H]2C=C3[C@@H]4CC[C@H]5Cc6nc7c(nc6C[C@]5(C)[C@H]4CC4(OCCO4)[C@]3(C)[C@H]2[C@@H]1C)C[C@@H]1CC[C@H]2C3=C[C@@H]4O[C@]5(CC[C@H](C)CO5)[C@@H](C)[C@@H]4[C@@]3(C)[C@H](O)C[C@@H]2[C@@]1(C)C7 | 10 | > 10 | > 10 | 2.5 | 10 | > 10 | 0.95 | 3.1 | > 10
